Test [1] has as its target T1, Calcium/calmodulin-dependent protein kinase type IV (Homo sapiens, UniProt Q16566).
T1 sequence (Q16566 whole entry): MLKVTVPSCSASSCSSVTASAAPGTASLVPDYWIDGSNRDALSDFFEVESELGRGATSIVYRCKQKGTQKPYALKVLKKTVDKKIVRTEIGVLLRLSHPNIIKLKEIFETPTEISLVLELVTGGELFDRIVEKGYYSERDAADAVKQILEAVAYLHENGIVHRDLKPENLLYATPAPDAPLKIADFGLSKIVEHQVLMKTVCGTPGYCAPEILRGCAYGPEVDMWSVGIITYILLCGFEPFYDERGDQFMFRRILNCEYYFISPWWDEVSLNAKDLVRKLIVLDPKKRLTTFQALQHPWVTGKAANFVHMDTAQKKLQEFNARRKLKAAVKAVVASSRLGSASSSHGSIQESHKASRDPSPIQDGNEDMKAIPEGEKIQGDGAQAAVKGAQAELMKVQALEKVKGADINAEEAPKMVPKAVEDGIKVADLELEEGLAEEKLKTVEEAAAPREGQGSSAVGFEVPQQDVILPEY

Test [2] has as its target T2, ATP-dependent RNA helicase DDX42 (Homo sapiens, UniProt Q86XP3).
T2 sequence (Q86XP3 whole entry): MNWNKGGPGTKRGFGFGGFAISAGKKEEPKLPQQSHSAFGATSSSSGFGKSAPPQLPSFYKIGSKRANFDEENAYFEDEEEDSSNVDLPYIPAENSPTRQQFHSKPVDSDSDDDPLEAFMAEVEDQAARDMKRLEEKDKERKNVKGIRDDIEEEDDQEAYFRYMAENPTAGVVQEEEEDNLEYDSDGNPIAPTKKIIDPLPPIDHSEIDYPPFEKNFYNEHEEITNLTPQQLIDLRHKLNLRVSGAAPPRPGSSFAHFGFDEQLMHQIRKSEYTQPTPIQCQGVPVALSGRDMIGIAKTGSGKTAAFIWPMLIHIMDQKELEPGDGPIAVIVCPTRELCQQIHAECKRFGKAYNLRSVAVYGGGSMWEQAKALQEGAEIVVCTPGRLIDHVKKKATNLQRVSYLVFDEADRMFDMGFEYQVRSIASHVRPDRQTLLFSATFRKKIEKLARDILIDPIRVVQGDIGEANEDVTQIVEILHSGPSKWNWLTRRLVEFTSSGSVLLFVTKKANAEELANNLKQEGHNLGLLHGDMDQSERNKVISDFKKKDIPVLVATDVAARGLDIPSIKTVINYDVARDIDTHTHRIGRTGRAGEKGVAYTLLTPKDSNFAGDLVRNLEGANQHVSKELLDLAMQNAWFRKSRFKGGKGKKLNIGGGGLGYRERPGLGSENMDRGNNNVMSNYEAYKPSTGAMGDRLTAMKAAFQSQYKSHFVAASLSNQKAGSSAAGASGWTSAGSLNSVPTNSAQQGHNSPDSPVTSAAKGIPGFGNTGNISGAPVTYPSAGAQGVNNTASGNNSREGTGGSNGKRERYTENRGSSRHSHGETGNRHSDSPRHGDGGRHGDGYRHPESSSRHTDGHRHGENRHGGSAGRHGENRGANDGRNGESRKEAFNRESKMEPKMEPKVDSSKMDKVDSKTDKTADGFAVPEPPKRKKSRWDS

Test [3] deals with Mitogen-activated protein kinase kinase kinase 4 (Homo sapiens, UniProt Q9Y6R4).
The target in test [4] is Mitogen-activated protein kinase 3 (Homo sapiens, UniProt P27361).
Test [5] addresses T3, STE20-related kinase adapter protein alpha (Homo sapiens, UniProt Q7RTN6).
T3 sequence (Q7RTN6 whole entry): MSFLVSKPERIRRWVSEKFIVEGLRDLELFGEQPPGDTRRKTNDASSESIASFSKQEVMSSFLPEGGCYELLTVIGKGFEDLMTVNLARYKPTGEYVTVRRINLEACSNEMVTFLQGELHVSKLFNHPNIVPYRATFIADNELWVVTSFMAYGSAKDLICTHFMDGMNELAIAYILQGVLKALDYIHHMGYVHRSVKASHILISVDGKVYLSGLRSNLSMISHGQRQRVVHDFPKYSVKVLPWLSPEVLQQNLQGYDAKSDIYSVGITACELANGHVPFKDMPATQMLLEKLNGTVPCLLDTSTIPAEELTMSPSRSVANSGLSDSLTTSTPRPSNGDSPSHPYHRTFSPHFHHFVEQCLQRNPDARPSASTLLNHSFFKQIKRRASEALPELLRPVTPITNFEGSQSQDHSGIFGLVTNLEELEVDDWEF

Another test addresses Wee1-like protein kinase (Homo sapiens, UniProt P30291).

Structures are written as SMILES. The source made the active and inactive calls. Where only a bound is given, the exact number is not on record here.
Note: in the data inactive means no Kd found up to 30 µM.

Chain of Mitogen-activated protein kinase 3 (P27361 whole entry): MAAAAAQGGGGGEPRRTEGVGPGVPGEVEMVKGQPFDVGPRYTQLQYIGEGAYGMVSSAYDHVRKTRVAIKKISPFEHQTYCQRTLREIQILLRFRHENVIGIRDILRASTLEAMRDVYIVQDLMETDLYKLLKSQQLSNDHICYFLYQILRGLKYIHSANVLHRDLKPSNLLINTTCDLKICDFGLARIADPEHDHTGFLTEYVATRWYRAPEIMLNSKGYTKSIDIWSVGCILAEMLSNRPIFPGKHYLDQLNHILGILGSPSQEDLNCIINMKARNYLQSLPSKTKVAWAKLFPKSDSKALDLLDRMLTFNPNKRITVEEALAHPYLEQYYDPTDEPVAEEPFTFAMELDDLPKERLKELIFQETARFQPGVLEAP
Chain of Wee1-like protein kinase (P30291 whole entry): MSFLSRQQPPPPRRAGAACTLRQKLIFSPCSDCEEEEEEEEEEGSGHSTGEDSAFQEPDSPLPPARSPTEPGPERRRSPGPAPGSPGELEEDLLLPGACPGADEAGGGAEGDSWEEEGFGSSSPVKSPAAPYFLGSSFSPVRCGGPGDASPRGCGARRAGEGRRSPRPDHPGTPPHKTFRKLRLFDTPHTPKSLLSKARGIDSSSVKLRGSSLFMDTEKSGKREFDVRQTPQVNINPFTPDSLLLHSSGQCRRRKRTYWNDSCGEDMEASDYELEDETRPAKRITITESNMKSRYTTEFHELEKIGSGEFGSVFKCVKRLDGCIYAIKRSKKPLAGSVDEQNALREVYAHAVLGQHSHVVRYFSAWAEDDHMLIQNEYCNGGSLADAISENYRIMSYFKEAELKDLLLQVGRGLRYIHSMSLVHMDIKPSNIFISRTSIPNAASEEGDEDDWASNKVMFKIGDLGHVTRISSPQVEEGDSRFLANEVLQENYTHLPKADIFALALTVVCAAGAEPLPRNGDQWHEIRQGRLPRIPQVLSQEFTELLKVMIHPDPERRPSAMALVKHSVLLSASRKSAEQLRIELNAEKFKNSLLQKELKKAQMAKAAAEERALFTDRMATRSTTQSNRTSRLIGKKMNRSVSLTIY
Chain of Mitogen-activated protein kinase kinase kinase 4 (Q9Y6R4 whole entry): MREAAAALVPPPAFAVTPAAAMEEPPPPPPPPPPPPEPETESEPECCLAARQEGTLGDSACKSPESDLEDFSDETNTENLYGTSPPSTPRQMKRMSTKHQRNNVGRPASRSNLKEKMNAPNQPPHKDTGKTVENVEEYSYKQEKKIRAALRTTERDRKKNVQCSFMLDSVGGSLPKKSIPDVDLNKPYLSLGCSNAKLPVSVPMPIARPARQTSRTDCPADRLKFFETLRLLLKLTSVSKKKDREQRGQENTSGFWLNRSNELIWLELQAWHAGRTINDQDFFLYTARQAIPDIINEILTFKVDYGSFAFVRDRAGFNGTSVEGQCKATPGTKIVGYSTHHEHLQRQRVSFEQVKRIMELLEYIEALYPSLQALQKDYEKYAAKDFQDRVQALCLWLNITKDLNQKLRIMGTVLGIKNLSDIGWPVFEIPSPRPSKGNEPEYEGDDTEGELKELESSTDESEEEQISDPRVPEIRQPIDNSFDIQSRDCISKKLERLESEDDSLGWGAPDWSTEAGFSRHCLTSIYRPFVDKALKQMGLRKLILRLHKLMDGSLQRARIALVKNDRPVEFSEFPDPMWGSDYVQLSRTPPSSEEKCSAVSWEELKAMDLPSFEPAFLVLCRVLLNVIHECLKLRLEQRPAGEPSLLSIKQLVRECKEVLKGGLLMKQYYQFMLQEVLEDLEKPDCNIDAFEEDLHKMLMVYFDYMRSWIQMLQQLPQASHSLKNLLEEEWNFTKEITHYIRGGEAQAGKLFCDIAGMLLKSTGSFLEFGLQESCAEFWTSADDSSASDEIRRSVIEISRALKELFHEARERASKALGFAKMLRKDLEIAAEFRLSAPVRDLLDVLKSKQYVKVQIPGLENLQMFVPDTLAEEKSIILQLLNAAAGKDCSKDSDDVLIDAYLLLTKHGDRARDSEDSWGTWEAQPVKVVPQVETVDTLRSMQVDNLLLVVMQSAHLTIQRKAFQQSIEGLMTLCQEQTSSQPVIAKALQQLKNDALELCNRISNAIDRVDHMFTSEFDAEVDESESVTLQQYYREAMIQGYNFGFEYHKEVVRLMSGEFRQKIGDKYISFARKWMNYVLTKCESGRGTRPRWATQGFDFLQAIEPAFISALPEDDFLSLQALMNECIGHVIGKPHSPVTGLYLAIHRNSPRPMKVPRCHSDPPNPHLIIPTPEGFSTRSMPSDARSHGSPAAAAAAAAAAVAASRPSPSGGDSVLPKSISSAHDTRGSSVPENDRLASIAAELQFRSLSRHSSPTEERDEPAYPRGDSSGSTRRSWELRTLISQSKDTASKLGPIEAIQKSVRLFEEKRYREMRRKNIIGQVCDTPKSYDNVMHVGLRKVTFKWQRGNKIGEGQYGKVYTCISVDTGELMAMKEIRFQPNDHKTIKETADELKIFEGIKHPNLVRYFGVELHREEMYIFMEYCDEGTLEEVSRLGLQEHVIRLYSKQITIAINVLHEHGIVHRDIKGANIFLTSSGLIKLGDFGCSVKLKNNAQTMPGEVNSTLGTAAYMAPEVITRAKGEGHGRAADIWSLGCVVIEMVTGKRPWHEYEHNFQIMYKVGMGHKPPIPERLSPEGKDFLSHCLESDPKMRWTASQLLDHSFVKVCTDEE

As to `COc1cc2nccc(Oc3ccc(NC(=O)Nc4cc(C)on4)c(Cl)c3)c2cc1OC` [TIVOZANIB], the Kd (in test [1]; in test [2]; in test [3]; in test [4]; in test [5]; at Wee1-like protein kinase) was > 30 µM (inactive) in each case.
As for `CCCS(=O)(=O)Nc1ccc(F)c(C(=O)c2c[nH]c3ncc(-c4ccc(Cl)cc4)cc23)c1F` [VEMURAFENIB], the Kd (in test [1]; in test [2]; in test [3]; in test [4]; in test [5]; at Wee1-like protein kinase) was > 30 µM (inactive) throughout.
As to `O=C(O)[C@]1(Cc2cccc(Nc3nccs3)n2)CC[C@@H](Oc2cccc(Cl)c2F)CC1` [MK-5108], the Kd (in test [1]; in test [2]; in test [3]; in test [4]; in test [5]; at Wee1-like protein kinase) was > 30 µM (inactive) each time.
For the compound `CC[C@@H]1C(=O)N(C)c2cnc(Nc3ccc(C(=O)N[C@H]4CC[C@H](N5CCN(CC6CC6)CC5)CC4)cc3OC)nc2N1C(C)C` [VOLASERTIB], the Kd (in test [1]; in test [2]; in test [3]; in test [4]; in test [5]; at Wee1-like protein kinase) was > 30 µM (inactive) in each case.
Regarding `Cc1cc(-c2cc(O)ccc2Cl)cc2nnc(Nc3ccc(OCCN4CCCC4)cc3)nc12`, the Kd (in test [1]; in test [2]; in test [3]; in test [4]; in test [5]; at Wee1-like protein kinase) was > 30 µM (inactive) throughout.
For `OCCn1cc(-c2cnc3nnn(Cc4ccc5ncccc5c4)c3n2)cn1` [PF-04217903], the Kd (in test [1]; in test [2]; in test [3]; in test [4]; in test [5]; at Wee1-like protein kinase) was > 30 µM (inactive) in each case.
For `CCn1c(=O)c(-c2cc[nH]n2)cc2c(C)nc(N)nc21` [VOXTALISIB], the Kd (in test [1]; in test [2]; in test [3]; in test [4]; in test [5]; on Wee1-like protein kinase) was > 30 µM (inactive) in each case.
Consider `Cn1ncc(Cl)c1-c1cc(C(=O)N[C@H](CN)Cc2cccc(F)c2)sc1Cl` [AFURESERTIB], for which the Kd (in test [1]; in test [2]; in test [3]; in test [4]; in test [5]; on Wee1-like protein kinase) was > 30 µM (inactive) each time.
In the case of `Cc1cc2c(F)c(Oc3ncnn4cc(OC[C@@H](C)OC(=O)[C@H](C)N)c(C)c34)ccc2[nH]1` [BRIVANIB ALANINATE], the Kd (in test [1]; in test [2]; in test [3]; in test [4]; in test [5]; on Wee1-like protein kinase) was > 30 µM (inactive) in each case.
As for `CN1CCC(CNc2ccc3ncc(-c4cccc(OC(F)(F)F)c4)n3n2)CC1` [SGI-1776], the Kd (in test [1]; in test [2]; in test [3]; in test [4]; in test [5]; at Wee1-like protein kinase) was > 30 µM (inactive) in each case.
In the case of `CC[C@H](Nc1ncnc2[nH]cnc12)c1nc2cccc(F)c2c(=O)n1-c1ccccc1` [IDELALISIB], the Kd (in test [1]; in test [2]; in test [3]; in test [4]; in test [5]; at Wee1-like protein kinase) was > 30 µM (inactive) in each case.
Regarding `COC(=O)N[C@@H](C)CNc1nccc(-c2cn(C(C)C)nc2-c2cc(Cl)cc(NS(C)(=O)=O)c2F)n1` [ENCORAFENIB], the Kd in test [1] was > 30 µM (inactive); in test [2] it was > 30 µM (inactive); in test [3], 1.44 µM (active); in test [4], > 30 µM (inactive); in test [5], > 30 µM (inactive); on Wee1-like protein kinase, > 30 µM (inactive).
`O=c1sn(-c2cccc3ccccc23)c(=O)n1Cc1ccccc1` [TIDEGLUSIB]: the Kd (in test [1]; in test [2]; in test [3]; in test [4]; in test [5]; at Wee1-like protein kinase) was > 30 µM (inactive) each time.
Take `COC(=O)[C@@]1(O)C[C@H]2O[C@]1(C)n1c3ccccc3c3c4c(c5c6ccccc6n2c5c31)C(=O)NC4` [K-252A]: the Kd (in test [1]; in test [2]; in test [3]; in test [4]; in test [5]; at Wee1-like protein kinase) was > 30 µM (inactive) throughout.
`O=C(c1ccc(F)c(F)c1Nc1ccc(I)cc1F)N1CC(O)([C@@H]2CCCCN2)C1` [COBIMETINIB]: the Kd (in test [1]; in test [2]; in test [3]; in test [4]; in test [5]; on Wee1-like protein kinase) was > 30 µM (inactive) throughout.
Turning to `C1=C/COCc2cc(ccc2OCCN2CCCC2)Nc2nccc(n2)-c2cccc(c2)COC/1` [PACRITINIB], the Kd (in test [1]; in test [2]; in test [3]; in test [4]; in test [5]; at Wee1-like protein kinase) was > 30 µM (inactive) each time.
For the compound `Cn1cc(-c2ccc(F)c(C(F)(F)F)c2)nc1C1CCN(c2ncnc3[nH]ncc23)CC1` [LY-2584702], the Kd (in test [1]; in test [2]; in test [3]; in test [4]; in test [5]; on Wee1-like protein kinase) was > 30 µM (inactive) throughout.
As to `CN(C)C(=O)c1cc2cnc(Nc3ccc(N4CCNCC4)cn3)nc2n1C1CCCC1` [RIBOCICLIB], the Kd (in test [1]; in test [2]; in test [3]; in test [4]; in test [5]; at Wee1-like protein kinase) was > 30 µM (inactive) each time.
Take `O=C(Nc1ccc(-c2ccnc(Nc3ccc(N4CCOCC4)cc3)n2)cc1)C1CCCN1` (centres undefined) [XL-019]: the Kd (in test [1]; in test [2]; in test [3]; in test [4]; in test [5]; at Wee1-like protein kinase) was > 30 µM (inactive) each time.

For the origin of these results see ChEMBL document CHEMBL3991601, “The target landscape of clinical kinase drugs” (Science, 2017).
